Ten compounds from BindingDB's records for doi:10.1111/j.1747-0285.2009.00910.x (Universit&Agrave, 2010) can be followed below.

Broadly, the pKi is the negative decadic logarithm of the Ki, by convention in mol/L. Low readings indicate a large Ki, high ones a small Ki.

pKi: −log10 of the molar value.

Cannabinoid receptor 1, sequence (P20272 whole entry): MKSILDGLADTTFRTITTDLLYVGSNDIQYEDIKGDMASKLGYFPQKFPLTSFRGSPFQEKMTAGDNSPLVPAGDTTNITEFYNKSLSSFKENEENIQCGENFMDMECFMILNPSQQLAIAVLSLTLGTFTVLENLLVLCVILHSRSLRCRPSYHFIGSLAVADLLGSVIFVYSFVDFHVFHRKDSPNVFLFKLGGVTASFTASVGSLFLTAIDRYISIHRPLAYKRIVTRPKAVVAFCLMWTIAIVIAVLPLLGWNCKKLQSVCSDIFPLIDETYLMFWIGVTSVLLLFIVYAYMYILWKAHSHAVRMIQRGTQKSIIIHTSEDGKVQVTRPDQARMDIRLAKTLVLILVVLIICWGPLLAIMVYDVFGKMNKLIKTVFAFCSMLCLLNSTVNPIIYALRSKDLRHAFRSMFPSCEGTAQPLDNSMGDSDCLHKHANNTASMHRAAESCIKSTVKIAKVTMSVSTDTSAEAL

The test has as its target Cannabinoid receptor 1 (Rattus norvegicus, UniProt P20272). Briefly: Binding Assay. The note with it: pH 7.4; 25 °C. As to the method:
CB1 competitive assay were performed in rat cerebellar membranes using [3H]WIN 55212-2 from Perkin-Elmer as a radioligand.
`c1ccc2c(NCc3cn(CCN4CCOCC4)c4ccccc34)cccc2c1` [N-({1-[2-(morpholin-4-yl)ethyl]-1H-indol-3-yl}methyl)naphthalen-1-amine, 8] had a negative logarithm of the Ki (pKi) of 7.31.
The result for `Clc1ccc(NCc2cn(CCN3CCOCC3)c3ccccc23)cc1` [4-chloro-N-({1-[2-(morpholin-4-yl)ethyl]-1H-indol-3-yl}methyl)aniline, 9] reads 7.62; that for `COc1ccc(NCc2cn(CCN3CCOCC3)c3ccccc23)cc1` [4-methoxy-N-({1-[2-(morpholin-4-yl)ethyl]-1H-indol-3-yl}methyl)aniline, 7], 7.37; that for `COc1ccc(/N=C2\C(=O)N(CCN3CCOCC3)c3ccc(Cl)cc32)cc1` [5-Substituted derivative, 2], 7.13.
The same measure for `Cc1ccc(NCc2cn(CCN3CCOCC3)c3ccccc23)cc1` [4-methyl-N-({1-[2-(morpholin-4-yl)ethyl]-1H-indol-3-yl}methyl)aniline, 10]: 7.80; for `COc1ccc(/N=C2\C(=O)N(CCN3CCOCC3)c3ccccc32)cc1` [3-(Arylimino)-1-(2-morpholin-4-yl-ethyl)-1,3-dihydro-indole-2-one, 1]: 6.51; for `COc1ccc(/N=C2\C(=O)N(CCN3CCOCC3)c3ccc(C)cc32)cc1` [5-Substituted derivative, 3]: 6.41.
Consider `Cc1ccc2c(c1)/C(=N/c1cccc3ccccc13)C(=O)N2CCN1CCOCC1` [5-Substituted derivative, 6], for which the negative logarithm of the Ki (pKi) was 7.16.
The result for `O=C1/C(=N\c2cccc3ccccc23)c2ccccc2N1CCN1CCOCC1` [3-(Arylimino)-1-(2-morpholin-4-yl-ethyl)-1,3-dihydro-indole-2-one, 4] reads 6.26; that for `O=C1/C(=N\c2cccc3ccccc23)c2cc(Cl)ccc2N1CCN1CCOCC1` [5-Substituted derivative, 5], 8.08.
